Results: patent publication US20230150944A1, “PESTICIDALLY ACTIVE HETEROCYCLIC DERIVATIVES WITH SULFOXIMINE CONTAINING SUBSTITUENTS” (SYNGENTA CROP PROTECTION AG, priority 2018, published 2023)

Experiments:
Assay type in all cases: in vivo
[1] = test system: Diabrotica balteata (Corn Root Worm); assay: Example B2: Activity on Diabrotica balteata, maize sprout spray; conditions: 96 h, application rate of 200 ppm, L2 larvae on maize sprouts, 4 days after infestation, read-out: effect in at least one of the two categories (mortality or growth inhibition)
Experimental: Example B2: Activity on Diabrotica balteata (Corn Root Worm)
Maize sprouts placed onto an agar layer in 24-well microtiter plates were treated with aqueous test solutions prepared from 10′000 ppm DMSO stock solutions by spraying. After drying, the plates were infested with L2 larvae (6 to 10 per well). The samples were assessed for mortality and growth inhibition in comparison to untreated samples 4 days after infestation.

[2] = test system: Plutella xylostella (Diamond Back Moth); assay: Example B11: Activity on Plutella xylostella, artificial diet, eggs; conditions: 192 h, application rate of 200 ppm, 8 days after infestation, read-out: effect in at least one of the two categories (mortality or growth inhibition)
Experimental: Example B11: Activity on Plutella xylostella (Diamond Back Moth)
24-well microtiter plates with artificial diet were treated with aqueous test solutions prepared from 10′000 ppm DMSO stock solutions by pipetting. After drying, Plutella eggs were pipetted through a plastic stencil onto a gel blotting paper and the plate was closed with it. The samples were assessed for mortality and growth inhibition in comparison to untreated samples 8 days after infestation.

[3] = test system: Myzus persicae (Green Peach Aphid); assay: Example B5: Activity on Myzus persicae, pea seedling roots in test solution; conditions: 144 h, test rate of 24 ppm, roots of infested pea seedlings placed into test solution, 6 days
Experimental: Example B5: Activity on Myzus persicae (Green Peach Aphid)
Roots of pea seedlings infested with an aphid population of mixed ages were placed directly into aqueous test solutions prepared from 10′000 DMSO stock solutions. The samples were assessed for mortality 6 days after placing seedlings into test solutions.

[4] = test system: Spodoptera littoralis (Egyptian Cotton Leaf Worm); assay: Example B7: Activity on Spodoptera littoralis, cotton leaf disc spray; conditions: foliar, 72 h, application rate of 200 ppm, L1 larvae on cotton leaf discs, 3 days after infestation, read-out: control (mortality, anti-feeding effect or growth inhibition)
Experimental: Example B7: Activity on Spodoptera littoralis (Egyptian Cotton Leaf Worm)
Cotton leaf discs were placed onto agar in 24-well microtiter plates and sprayed with aqueous test solutions prepared from 10′000 ppm DMSO stock solutions. After drying the leaf discs were infested with five L1 larvae. The samples were assessed for mortality, anti-feeding effect, and growth inhibition in comparison to untreated samples 3 days after infestation. Control of Spodoptera littoralis by a test sample is given when at least one of the categories mortality, anti-feedant effect, and growth inhibition is higher than the untreated sample.

[5] = test system: Myzus persicae (Green Peach Aphid); assay: Example B4: Activity on Myzus persicae, sunflower leaf disc spray; conditions: foliar, 144 h, application rate of 200 ppm, mixed-age aphids on sprayed sunflower leaf discs, 6 days after infestation
Experimental: Example B4: Activity on Myzus persicae (Green Peach Aphid)
Sunflower leaf discs were placed onto agar in a 24-well microtiter plate and sprayed with aqueous test solutions prepared from 10′000 ppm DMSO stock solutions. After drying, the leaf discs were infested with an aphid population of mixed ages. The samples were assessed for mortality 6 days after infestation.

[6] = test system: Bemisia tabaci (Cotton White Fly); assay: Example B1: Activity on Bemisia tabaci, cotton leaf disc spray; conditions: foliar, 144 h, application rate of 200 ppm, adult white flies on cotton leaf discs, 6 days after incubation
Experimental: Example B1: Activity on Bemisia tabaci (Cotton White Fly)
Cotton leaf discs were placed on agar in 24-well microtiter plates and sprayed with aqueous test solutions prepared from 10′000 ppm DMSO stock solutions. After drying the leaf discs were infested with adult white flies. The samples were checked for mortality 6 days after incubation.

[7] = test system: Tetranychus urticae (Two-Spotted Spider Mite); assay: Example B10: Activity on Tetranychus urticae, bean leaf disc spray; conditions: foliar, 192 h
Experimental: Example B10: Activity on Tetranychus urticae (Two-Spotted Spider Mite)
Bean leaf discs on agar in 24-well microtiter plates were sprayed with aqueous test solutions prepared from 10′000 ppm DMSO stock solutions. After drying the leaf discs were infested with a mite population of mixed ages. The samples were assessed for mortality on mixed population (mobile stages) 8 days after infestation.

[8] = test system: Euschistus heros (Neotropical Brown Stink Bug); assay: Example B3: Activity on Euschistus heros, soybean leaf spray; conditions: 120 h, application rate of 200 ppm, N2 nymphs on soybean leaves, 5 days after infestation, read-out: effect in at least one of the two categories (mortality or growth inhibition)
Experimental: Example B3: Activity on Euschistus heros (Neotropical Brown Stink Bug)
Soybean leaves on agar in 24-well microtiter plates were sprayed with aqueous test solutions prepared from 10′000 ppm DMSO stock solutions. After drying the leaves were infested with N2 nymphs. The samples were assessed for mortality and growth inhibition in comparison to untreated samples 5 days after infestation.

[9] = test system: Plutella xylostella (Diamond Back Moth); assay: Example B6: Activity on Plutella xylostella, artificial diet, L2 larvae; conditions: 120 h, application rate of 200 ppm, 5 days after infestation, read-out: effect in at least one of the two categories (mortality or growth inhibition)
Experimental: Example B6: Activity on Plutella xylostella (Diamond Back Moth)
24-well microtiter plates with artificial diet were treated with aqueous test solutions prepared from 10′000 ppm DMSO stock solutions by pipetting. After drying, the plates were infested with L2 larvae (10 to 15 per well). The samples were assessed for mortality and growth inhibition in comparison to untreated samples 5 days after infestation.

CCS(=N)(=O)c1cc(C2CC2)cnc1-c1cn2ncc(C(F)(F)F)cc2n1 (stereo not shown) [Example P16, [5-cyclopropyl-2-[7-(trifluoromethyl)imidazo[1,2-b]pyridazin-2-yl]-3-pyridyl]-ethyl-imino-oxo-λ^6-sulfane]
≥ 80%: percent effect (mortality or growth inhibition) at 200 ppm [1] | percent effect (mortality or growth inhibition) at 200 ppm [2] | mortality at 24 ppm [3] | percent control (mortality, anti-feedant effect or growth inhibition) at 200 ppm [4] | mortality at 200 ppm [5]

CCS(=N)(=O)c1cc(C2CC2)cnc1-c1nc2cc(S(=O)(=O)C(F)(F)F)ncc2n1C (stereo not shown) [Example P3, [5-cyclopropyl-2-[3-methyl-6-(trifluoromethylsulfonyl)imidazo[4,5-c]pyridin-2-yl]-3-pyridyl]-ethyl-imino-oxo-λ^6-sulfane]
≥ 80%: percent effect (mortality or growth inhibition) at 200 ppm [1] | mortality at 200 ppm [6] | mortality at 200 ppm [7] | mortality at 24 ppm [3] | percent control (mortality, anti-feedant effect or growth inhibition) at 200 ppm [4] | mortality at 200 ppm [5] | percent effect (mortality or growth inhibition) at 200 ppm [8] | percent effect (mortality or growth inhibition) at 200 ppm [9]
